Assay results as given in the supplement of paper PMC10307832.

Experiments:
Assay in all cases: relative viability (nuclei count vs DMSO), 5 days (fraction); higher = more cells survive
[1] = tested on: BEN
Procedure, shortened: (§1)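 Lung cancer cell lines in 1536-well plates were dosed by pin tool the day after seeding, either with one drug alone or with a fixed anchor-drug dose plus five library-drug doses (not always all listed) in √10 steps. After 5 days, cells were fixed and their nuclei stained in one step (final 0.05% Triton X-100, 1% formaldehyde, 1 ug/ml Hoechst), then counted on 4× images. Relative viability is the nuclei count in treated wells divided by that in vehicle wells. Values are medians of duplicate plates.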

[2] = tested on: NCI-H358
Procedure, shortened: as §1

[3] = tested on: LCLC-97TM1
Procedure, shortened: as §1

[4] = tested on: LC-2-ad
Procedure, shortened: as §1

[5] = tested on: LXF-289
Procedure, shortened: as §1

[6] = tested on: NCI-H2087
Procedure, shortened: as §1

[7] = tested on: NCI-H650
Procedure, shortened: as §1

[8] = tested on: NCI-H596
Procedure, shortened: as §1

[9] = tested on: HCC-15
Procedure, shortened: as §1

[10] = tested on: NCI-H838
Procedure, shortened: as §1

[11] = tested on: ChaGo-K-1
Procedure, shortened: as §1

[12] = tested on: UMC-11
Procedure, shortened: as §1

Structure (SMILES): C=C1C(=O)O[C@@H](CCCCCCCC)[C@@H]1C(=O)O [C-75] + COc1cc2c(Oc3ccc(NC(=O)C4(C(=O)Nc5ccc(F)cc5)CC4)cc3F)ccnc2cc1OCCCN1CCOCC1 [Foretinib] (partner 0.25 µM)
- relative viability ([1]; first compound 0.08 µM): 0.712
- relative viability ([1]; first compound 0.253 µM): 0.671
- relative viability ([1]; first compound 0.8 µM): 0.547
- relative viability ([1]; first compound 8 µM): 0.478
- relative viability ([2]; first compound 0.08 µM): 0.748
- relative viability ([2]; first compound 0.253 µM): 0.623
- relative viability ([2]; first compound 0.8 µM): 0.565
- relative viability ([2]; first compound 2.53 µM): 0.595
- relative viability ([2]; first compound 8 µM): 0.511
- relative viability ([3]; first compound 0.08 µM): 0.934
- relative viability ([3]; first compound 0.253 µM): 1.01
- relative viability ([3]; first compound 0.8 µM): 0.951
- relative viability ([3]; first compound 2.53 µM): 0.847
- relative viability ([3]; first compound 8 µM): 0.926
- relative viability ([4]; first compound 0.08 µM): 0.937
- relative viability ([4]; first compound 0.253 µM): 0.8
- relative viability ([4]; first compound 0.8 µM): 0.859
- relative viability ([4]; first compound 2.53 µM): 0.724
- relative viability ([4]; first compound 8 µM): 0.889
- relative viability ([5]; first compound 0.08 µM): 0.949
- relative viability ([5]; first compound 0.253 µM): 0.965
- relative viability ([5]; first compound 0.8 µM): 0.932
- relative viability ([5]; first compound 2.53 µM): 0.654
- relative viability ([5]; first compound 8 µM): 0.948
- relative viability ([6]; first compound 0.08 µM): 1.15
- relative viability ([6]; first compound 0.253 µM): 1.07
- relative viability ([6]; first compound 0.8 µM): 0.943
- relative viability ([6]; first compound 2.53 µM): 0.725
- relative viability ([6]; first compound 8 µM): 0.891
- relative viability ([7]; first compound 0.08 µM): 1
- relative viability ([7]; first compound 0.253 µM): 0.818
- relative viability ([7]; first compound 0.8 µM): 1.04
- relative viability ([7]; first compound 2.53 µM): 0.995
- relative viability ([7]; first compound 8 µM): 0.993
- relative viability ([8]; first compound 0.08 µM): 0.878
- relative viability ([8]; first compound 0.253 µM): 1.01
- relative viability ([8]; first compound 0.8 µM): 0.871
- relative viability ([8]; first compound 2.53 µM): 1
- relative viability ([8]; first compound 8 µM): 0.869
- relative viability ([9]; first compound 0.08 µM): 0.949
- relative viability ([9]; first compound 0.253 µM): 1.01
- relative viability ([9]; first compound 0.8 µM): 0.956
- relative viability ([9]; first compound 2.53 µM): 1
- relative viability ([9]; first compound 8 µM): 0.931
- relative viability ([10]; first compound 0.08 µM): 1.06
- relative viability ([10]; first compound 0.8 µM): 0.948
- relative viability ([10]; first compound 2.53 µM): 0.861
- relative viability ([10]; first compound 8 µM): 0.964
- relative viability ([11]; first compound 0.08 µM): 0.915
- relative viability ([11]; first compound 0.253 µM): 0.887
- relative viability ([11]; first compound 0.8 µM): 0.894
- relative viability ([11]; first compound 2.53 µM): 0.925
- relative viability ([11]; first compound 8 µM): 0.874
- relative viability ([12]; first compound 0.08 µM): 0.99
- relative viability ([12]; first compound 0.253 µM): 1.04
